Test results reported in patent publication US5904857A, “4-alkyl and aryl semicarbazides as oxygen scavengers” (Nalco Chemical Company, priority 1997, dated 1999).

How the values were obtained:
[1] = Oxygen scavenger screening: dissolved O2 in effluent water (apparatus of FIG. 1); conditions: Equivalence Scavenger:O2 2:1, 250 ° F., feed pH 9.0-9.5
Procedure: The apparatus of FIG. 1 was utilized to evaluate the efficiency of various oxygen scavengers. Reference is made to FIG. 1. The feedstream was ambient temperature (22° C.) air-saturated deionized water. Air-saturation of the feedwater was maintained with a continuous purge with CO2 -free air. The pH of the feedwater was adjusted to within the range of 9.0-9.5 with reagent grade sodium hydroxide. All wetted parts were constructed from 316 stainless steel. Syringe infusion pumps were used for injection of scavenger and catalyst. A metering pump pressurized the flow to 85 psig. The first heating bath heated the water stream to about 214° F. in about 30 seconds. The water residence time in the second bath was 4.5 minutes, and the effluent temperature was 251° F. The water stream was cooled slightly below ambient temperature within a few seconds, the pressure was released, and the oxygen concentration of the effluent water was continuously monitored utilizing an Orbisphere oxygen probe at the exit sample point.
The data of Table 1 illustrate a remarkable reduction in dissolved O2 for the scavengers of this invention when utilized in conjunction with a catalyst in this temperature range.

[2] = Long term stability: hydrazine concentrations in high amine formulations over weeks (procedure of Example 5); assay type: physicochemical
Description: The procedure described in Example 5 was utilized to study long term stability. […] Thus, they are more advantageous than the conventional carbohydrazide treatment.

[3] = Comparative stability study: hydrazine buildup in high amine formulations over days (p-dimethylaminobenzaldehyde method, ASTM D1385-78); assay type: physicochemical
[4] = cited from earlier work
[5] = cited from earlier work; remark: listed apart in the source
[6] = catalyst none, None (untreated) 7800-8300
[7] = 6% scavenger / 40% CHA (cyclohexylamine)
[8] = 6% scavenger in 40% cyclohexylamine

SMILES: CCN(CC)C(=O)NN [4,4-diethylsemicarbazide, N,N-diethylsemicarbazide]
- Dissolved O2 ([1]; catalyst Co): 6500 ppb
- Dissolved O2 ([1]; catalyst Cu): 189 ppb
- Dissolved O2 [1, 6]: 7300 ppb
- Hydrazine (ppm) at 0 weeks [2, 7]: 114 ppm
- Hydrazine (ppm) at 5 weeks [2, 7]: 149 ppm
- Hydrazine (ppm) at 8 weeks ([2]; 6% scavenger / 40% CHA (cyclohexylamine), 8 weeks): 178 ppm

SMILES: CC(C)NC(=O)NN [4-isopropylsemicarbazide, N-isopropyl semicarbazide]
- Dissolved O2 ([1]; catalyst Co): 6500 ppb
- Dissolved O2 ([1]; catalyst Cu): 98 ppb
- Dissolved O2 [1, 6]: 7500 ppb

SMILES: NNC(=O)Nc1ccccc1 [4-phenyl semicarbazide]
- Dissolved O2 ([1]; catalyst Co): 4180 ppb
- Dissolved O2 ([1]; catalyst Cu): 164 ppb
- Dissolved O2 [1, 6]: 7480 ppb

SMILES: NNC(=O)NN [CHz, carbohydrazide]
- Hydrazine (ppm) at 0 days [3, 8]: 433 ppm
- Hydrazine (ppm) at 3 days [3, 8]: 1420 ppm
- Hydrazine (ppm) at 6 days [3, 8]: 2100 ppm
- Hydrazine (ppm) at 0 days ([3]; 6% scavenger in 40% morpholine): 94 ppm
- Hydrazine (ppm) at 3 days ([3]; 6% scavenger in 40% morpholine): 280 ppm
- Hydrazine (ppm) at 6 days ([3]; 6% scavenger in 40% morpholine): 465 ppm
- Hydrazine (ppm) at 0 days ([3]; 6% scavenger, no amine): 54 ppm
- Hydrazine (ppm) at 3 days ([3]; 6% scavenger, no amine): 56 ppm
- Hydrazine (ppm) at 6 days ([3]; 6% scavenger, no amine): 59 ppm
- Hydrazine (ppm) at 0 weeks [2, 7]: 433 ppm
- Hydrazine (ppm) at 5 weeks [2, 7]: 6300 ppm
- Hydrazine (ppm) at 0 weeks ([2]; 6% scavenger / 40% morpholine): 94 ppm
- Hydrazine (ppm) at 5 weeks ([2]; 6% scavenger / 40% morpholine): 2016 ppm

SMILES: NN [Hydrazine, hydrazine]
- Dissolved O2 ([1]; catalyst Cu): 241 ppb
- Dissolved O2 [1, 6]: 7500 ppb
- absorption ([4]; Kirk-Othmer): readily absorbed through the mouth, skin and respiratory system
- toxicity ([4]; Kirk-Othmer): highly toxic
- corneal damage ([4]; contact with the eye): permanent corneal damage may result from contact with the eye
- high dose effects ([4]; high doses): high doses may cause convulsions and other damaging side effects
- low dose effects ([4]; low doses): Low doses may cause central nervous system depression
- elimination of residual oxygen ([5]; Kirk-Othmer): efficiently eliminates the residual oxygen
- metal passivation ([5]; adherent protective layer of magnetite over iron surfaces): good metal passivator
